# Assay results published in US20230093099A1, “COMPOUNDS AND METHODS OF TREATING CANCERS” (CULLGEN (SHANGHAI), INC., priority 2019, published 2023).
# Test system: RS4;11 cells
# Assay: Cell viability assay (CellTiter-Glo) in RS4;11 cells
# Assay type: cell-based
# Conditions: Homo sapiens, 72 h; RS4;11 cells; cell viability, 3 days, CellTiter-Glo; read-out: IC50
# Procedure, shortened: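 RS4;11 cells seeded at 5000 per well, exposed for 3 days to 8- or 12-point 3-fold serial dilutions. Viability read by CellTiter-Glo luminescence; IC50 fitted by nonlinear least-squares regression.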
row,Structure (SMILES),IC50 [µM]
1,"Cc1ncsc1-c1ccc(CNC(=O)[C@@H]2C[C@@H](O)CN2C(=O)[C@@H](NC(=O)CCCCCNC(=O)CN2CCN(c3ccc(Nc4nc5cccc(-c6ccc(S(C)(=O)=O)cc6)n5n4)cc3)CC2)C(C)(C)C)cc1 [JA-122, (2S,4R)-1-((S)-3,3-Dimethyl-2-(6-(2-(4-(4-((5-(4-(methylsulfonyl)phenyl)-[1,2,4]triazolo[1,5-a]pyridin-2-yl)amino)phenyl)piperazin-1-yl)acetamido)hexanamido)butanoyl)-4-hydroxy-N-(4-(4-methylthiazol-5-yl)benzyl)pyrrolidine-2-carboxamide]",> 10
2,"O=C(CN1CCC(n2cc(-c3cnc4cccc(-c5cc(F)c(CN6CCOCC6)c(F)c5)c4n3)cn2)CC1)NCCOCCOCCNc1cccc2c1C(=O)N(C1CCC(=O)NC1=O)C2=O (stereo not shown) [JA-140, 2-[4-[4-[8-[3,5-Difluoro-4-(morpholinomethyl)phenyl]quinoxalin-2-yl]pyrazol-1-yl]-1-piperidyl]-N-[2-[2-[2-[[2-(2,6-dioxo-3-piperidyl)-1,3-dioxo-isoindolin-4-yl]amino]ethoxy]ethoxy]ethyl]acetamide]",> 10
3,"O=C1CCC(N2C(=O)c3ccc(NCCOCCOCCOCCOCCOCCC(=O)N4CCC(n5cc(-c6cnc7cccc(-c8cc(F)c(CN9CCOCC9)c(F)c8)c7n6)cn5)CC4)cc3C2=O)C(=O)N1 (stereo not shown) [JA-186, 5-((18-(4-(4-(8-(3,5-Difluoro-4-(morpholinomethyl)phenyl)quinoxalin-2-yl)-1H-pyrazol-1-yl)piperidin-1-yl)-18-oxo-3,6,9,12,15-pentaoxaoctadecyl)amino)-2-(2,6-dioxopiperidin-3-yl)isoindoline-1,3-dione]",> 10
4,"Cc1cnc(Nc2ccc(N3CCN(CC(=O)NCCOCCOCCOCC(=O)N[C@H](C(=O)N4C[C@H](O)C[C@H]4C(=O)NCc4ccc(-c5scnc5C)cc4)C(C)(C)C)CC3)cc2)nc1Nc1cccc(S(=O)(=O)NC(C)(C)C)c1 [JA-220, (2S,4R)-1-((S)-2-(tert-butyl)-17-(4-(4-((4-((3-(N-(tert-butyl)sulfamoyl)phenyl)amino)-5-methylpyrimidin-2-yl)amino)phenyl)piperazin-1-yl)-4,16-dioxo-6,9,12-trioxa-3,15-diazaheptadecanoyl)-4-hydroxy-N-(4-(4-methylthiazol-5-yl)benzyl)pyrrolidine-2-carboxamide]",> 10
5,"O=C(CN1CCC(n2cc(-c3cnc4cccc(-c5cc(F)c(CN6CCOCC6)c(F)c5)c4n3)cn2)CC1)NCCCCCCNc1cccc2c1C(=O)N(C1CCC(=O)NC1=O)C2=O (stereo not shown) [JA-147, 2-(4-(4-(8-(3,5-Difluoro-4-(morpholinomethyl)phenyl)quinoxalin-2-yl)-1H-pyrazol-1-yl)piperidin-1-yl)-N-(6-((2-(2,6-dioxopiperidin-3-yl)-1,3-dioxoisoindolin-4-yl)amino)hexyl)acetamide]",> 10
6,"Cc1cnc(Nc2ccc(N3CCN(C(=O)CCCCCNc4cccc5c4C(=O)N(C4CCC(=O)NC4=O)C5=O)CC3)cc2)nc1Nc1cccc(S(=O)(=O)NC(C)(C)C)c1 (stereo not shown) [JA-007, N-(tert-Butyl)-3-((2-((4-(4-(6-((2-(2,6-dioxopiperidin-3-yl)-1,3-dioxoisoindolin-4-yl)amino)hexanoyl)piperazin-1-yl)phenyl)amino)-5-methylpyrimidin-4-yl)amino)benzenesulfonamide]",> 10
7,"CS(=O)(=O)c1ccc(-c2cccc3nc(Nc4ccc(N5CCN(C(=O)CCCNc6cccc7c6C(=O)N(C6CCC(=O)NC6=O)C7=O)CC5)cc4)nn23)cc1 (stereo not shown) [JA-010, 2-(2,6-Dioxopiperidin-3-yl)-4-((4-(4-(4-((5-(4-(methylsulfonyl)phenyl)-[1,2,4]triazolo[1,5-a]pyridin-2-yl)amino)phenyl)piperazin-1-yl)-4-oxobutyl)amino)isoindoline-1,3-dione]",> 10
8,"Cc1ncsc1-c1ccc(CNC(=O)[C@@H]2C[C@@H](O)CN2C(=O)[C@@H](NC(=O)CCC(=O)N2CCC(n3cc(-c4cnc5cccc(-c6cc(F)c(CN7CCOCC7)c(F)c6)c5n4)cn3)CC2)C(C)(C)C)cc1 [JA-060, (2S,4R)-1-[(2S)-2-[[4-[4-[4-[8-[3,5-Difluoro-4-(morpholinomethyl)phenyl]quinoxalin-2-yl]pyrazol-1-yl]-1-piperidyl]-4-oxo-butanoyl]amino]-3,3-dimethyl-butanoyl]-4-hydroxy-N-[[4-(4-methylthiazol-5-yl)phenyl]methyl]pyrrolidine-2-carboxamide]",> 10

# The next lines start with the values.
row,IC50 [µM],Structure (SMILES)
1,1.15,"CS(=O)(=O)c1ccc(-c2cccc3nc(Nc4ccc(N5CCN(CCCCCCNc6ccc7c(c6)C(=O)N(C6CCC(=O)NC6=O)C7=O)CC5)cc4)nn23)cc1 (stereo not shown) [JA-254, 2-(2,6-Dioxopiperidin-3-yl)-5-((6-(4-(4-((5-(4-(methylsulfonyl)phenyl)-[1,2,4]triazolo[1,5-a]pyridin-2-yl)amino)phenyl)piperazin-1-yl)hexyl)amino)isoindoline-1,3-dione]"
2,0.543,"Cc1cnc(Nc2ccc(N3CCN(CC(=O)NCCNc4ccc5c(c4)C(=O)N(C4CCC(=O)NC4=O)C5=O)CC3)cc2)nc1Nc1cccc(S(=O)(=O)NC(C)(C)C)c1 (stereo not shown) [JA-242, 2-(4-(4-((4-((3-(N-(tert-butyl)sulfamoyl)phenyl)amino)-5-methylpyrimidin-2-yl)amino)phenyl)piperazin-1-yl)-N-(2-((2-(2,6-dioxopiperidin-3-yl)-1,3-dioxoisoindolin-5-yl)amino)ethyl)acetamide]"
3,2.79,"O=C(CN1CCC(n2cc(-c3cnc4cccc(-c5cc(F)c(CN6CCOCC6)c(F)c5)c4n3)cn2)CC1)NCCCCNc1ccc2c(c1)C(=O)N(C1CCC(=O)NC1=O)C2=O (stereo not shown) [JA-176, 2-(4-(4-(8-(3,5-Difluoro-4-(morpholinomethyl)phenyl)quinoxalin-2-yl)-1H-pyrazol-1-yl)piperidin-1-yl)-N-(4-((2-(2,6-dioxopiperidin-3-yl)-1,3-dioxoisoindolin-5-yl)amino)butyl)acetamide]"
4,> 0.5,"CS(=O)(=O)c1ccc(-c2cccc3nc(Nc4ccc(N5CCN(C(=O)CCCCCCn6c(=O)n(C7CCC(=O)NC7=O)c7ccccc76)CC5)cc4)nn23)cc1 (stereo not shown) [JA-281, 3-(3-(7-(4-(4-((5-(4-(Methylsulfonyl)phenyl)-[1,2,4]triazolo[1,5-a]pyridin-2-yl)amino)phenyl)piperazin-1-yl)-7-oxoheptyl)-2-oxo-2,3-dihydro-1H-benzo[d]imidazol-1-yl)piperidine-2,6-dione]"
5,3.35,"CS(=O)(=O)c1ccc(-c2cccc3nc(Nc4ccc(N5CCN(CC(=O)NCCOCCOCCNc6ccc7c(c6)C(=O)N(C6CCC(=O)NC6=O)C7=O)CC5)cc4)nn23)cc1 (stereo not shown) [JA-208, N-(2-(2-(2-((2-(2,6-Dioxopiperidin-3-yl)-1,3-dioxoisoindolin-5-yl)amino)ethoxy)ethoxy)ethyl)-2-(4-(4-((5-(4-(methylsulfonyl)phenyl)-[1,2,4]triazolo[1,5-a]pyridin-2-yl)amino)phenyl)piperazin-1-yl)acetamide]"
6,> 0.5,"Cn1c(=O)n(C2CCC(=O)NC2=O)c2ccc(NCCCCCC(=O)N3CCN(c4ccc(Nc5nc6cccc(-c7ccc(S(C)(=O)=O)cc7)n6n5)cc4)CC3)cc21 (stereo not shown) [JA-292, 3-(3-Methyl-5-((6-(4-(4-((5-(4-(methylsulfonyl)phenyl)-[1,2,4]triazolo[1,5-a]pyridin-2-yl)amino)phenyl)piperazin-1-yl)-6-oxohexyl)amino)-2-oxo-2,3-dihydro-1H-benzo[d]imidazol-1-yl)piperidine-2,6-dione]"
7,6.59,"O=C1CCC(N2C(=O)c3cccc(NCCCCC(=O)N4CCC(n5cc(-c6cnc7cccc(-c8cc(F)c(CN9CCOCC9)c(F)c8)c7n6)cn5)CC4)c3C2=O)C(=O)N1 (stereo not shown) [JA-003, 4-[[5-[4-[4-[8-[3,5-Difluoro-4-(morpholinomethyl)phenyl]quinoxalin-2-yl]pyrazol-1-yl]-1-piperidyl]-5-oxo-pentyl]amino]-2-(2,6-dioxo-3-piperidyl)isoindoline-1,3-dione]"
8,3.85,"Cc1ncsc1-c1ccc(CNC(=O)[C@@H]2C[C@@H](O)CN2C(=O)[C@@H](NC(=O)CCCCCCCCC(=O)N2CCN(c3ccc(Nc4nc5cccc(-c6ccc(S(C)(=O)=O)cc6)n5n4)cc3)CC2)C(C)(C)C)cc1 [JA-067, (2S,4R)-1-((S)-3,3-Dimethyl-2-(10-(4-(4-((5-(4-(methylsulfonyl)phenyl)-[1,2,4]triazolo[1,5-a]pyridin-2-yl)amino)phenyl)piperazin-1-yl)-10-oxodecanamido)butanoyl)-4-hydroxy-N-(4-(4-methylthiazol-5-yl)benzyl)pyrrolidine-2-carboxamide]"
9,0.638,"Cc1cnc(Nc2ccc(N3CCN(CC(=O)NCCOCCOCCOCCOCCNc4ccc5c(c4)C(=O)N(C4CCC(=O)NC4=O)C5=O)CC3)cc2)nc1Nc1cccc(S(=O)(=O)NC(C)(C)C)c1 (stereo not shown) [JA-240, 2-(4-(4-((4-((3-(N-(tert-butyl)sulfamoyl)phenyl)amino)-5-methylpyrimidin-2-yl)amino)phenyl)piperazin-1-yl)-N-(14-((2-(2,6-dioxopiperidin-3-yl)-1,3-dioxoisoindolin-5-yl)amino)-3,6,9,12-tetraoxatetradecyl)acetamide]"
10,1.9,"CS(=O)(=O)c1ccc(-c2cccc3nc(Nc4ccc(N5CCN(CCCCCCOc6ccc7c(c6)C(=O)N(C6CCC(=O)NC6=O)C7=O)CC5)cc4)nn23)cc1 (stereo not shown) [JA-256, 2-(2,6-Dioxopiperidin-3-yl)-5-((6-(4-(4-((5-(4-(methylsulfonyl)phenyl)-[1,2,4]triazolo[1,5-a]pyridin-2-yl)amino)phenyl)piperazin-1-yl)hexyl)oxy)isoindoline-1,3-dione]"
11,0.562,"O=C1CCC(N2Cc3cc(CCCCCCC(=O)N4CCC(n5cc(-c6cnc7cccc(-c8cc(F)c(CN9CCOCC9)c(F)c8)c7n6)cn5)CC4)ccc3C2=O)C(=O)N1 (stereo not shown) [JA-270, 3-(5-(7-(4-(4-(8-(3,5-Difluoro-4-(morpholinomethyl)phenyl)quinoxalin-2-yl)-1H-pyrazol-1-yl)piperidin-1-yl)-7-oxoheptyl)-1-oxoisoindolin-2-yl)piperidine-2,6-dione]"
